Measurements from patent US20200011856A1, “Method for Determining the Effectiveness of Treatment for the Prevention of Heartworm Disease” (priority 2017, published 2020).
Values joined by “and” are separate entries in the source; they are usually repeats but may differ in a detail not shown here. Identical values can stand only once.

How the values were obtained:
Dirofilaria immitis = assay: D. immitis L3 infection of NSG mice (FR3 Missouri strain or strain not stated), treatment, recovery and count of worms at necropsy; format: in vivo; conditions: for % Rec / Survival / % Rec (percent of the original 50 Di recovered) / Survival (number of Di recovered from the mouse): individual mouse; for % Rec (percent of the original 50 Di recovered) / Survival (number of Di recovered from the mouse): 1 mg/kg
[1] = system: Dirofilaria immitis (Merial worms, UC strain); assay: D. immitis L3 infection of NSG mice with Merial worms / UC strain, treatment, recovery and count of worms; format: in vivo
[2] = system: Strongyloides stercoralis; assay: Strongyloides stercoralis L3 infection of NSG mice with or without MPA, treatment, counts of adult worms, L1 and L3; conditions: 6 weeks post-injection; for Adult S. stercoralis recovery counts (individual mice) / Adult S. stercoralis recovery counts, mean / L1 S. stercoralis recovery counts (individual mice) / L1 S. stercoralis recovery counts, mean / L3 S. stercoralis recovery counts (individual mice) / L3 S. stercoralis recovery counts, mean: 5000 L3 s.c.; for Circulating L3: NSG mice, 5000 S. stercoralis L3 SC, with or without MPA
Description: NSG mice infected by subcutaneous injection with 5000 S. stercoralis L3 larvae, either with or without MPA. […] Adult worms, L1 larvae, or L3 larvae were counted in the mice at 6 weeks post-injection.

Haemonchus contortus = Haemonchus contortus L3 infection of control and MPA-treated NSG mice, worm and egg recovery; format: in vivo
[3] = NSG mice, 50 Di L3, 1x (1 mg/kg) at Day 30, recovery Days 41 to 43
[4] = NSG mice, 50 Di L3, 2x (1 mg/kg) at Days 1 and 30, recovery Days 41 to 43
[5] = NSG mice, 50 Di L3, 3x (1 mg/kg) at Days 1, 15, and 30, recovery Days 41 to 43
[6] = NSG mice, 50 Di L3 Day 0, 1 mg/kg EMO or 8800 on Days 30 and 60, recovery Days 83 and 84
[7] = NSG mice, 50 Di L3 Day 0, 1 mg/kg on Day 30, recovery Days 41 to 43
[8] = Table 9, NSG mice, 50 Di L3, 1 mg/kg on Days 1, 15, and 30, recovery Days 41 to 43
[9] = Table 9, group mean, NSG mice, 50 Di L3, 1 mg/kg on Days 1, 15, and 30, recovery Days 41 to 43
[10] = Table 11, NSG mice, 50 Di L3, 5 mg/kg on Days 1, 15, and 30, recovery Days 41 to 42
[11] = Table 11, group mean, NSG mice, 50 Di L3, 5 mg/kg on Days 1, 15, and 30, recovery Days 41 to 42
[12] = group mean, NSG mice, 50 Di L3, 1x (1 mg/kg) at Day 30, recovery Days 41 to 43
[13] = group mean, NSG mice, 50 Di L3 Day 0, 1 mg/kg EMO or 8800 on Days 30 and 60, recovery Days 83 and 84
[14] = group mean, NSG mice, 50 Di L3 Day 0, 1 mg/kg on Day 30, recovery Days 41 to 43
[15] = EMO 1 mg/kg Days 1, 15, 30, 50 Di L3 (UC Strain) per NSG mouse, recovery Days 41 to 43, group mean
[16] = EMO 1 mg/kg Days 1, 15, 30, 50 Di L3 (UC Strain) per NSG mouse, recovery Days 41 to 43, individual mice
[17] = group mean, NSG mice, 50 Di L3 Merial worms, 1 mg/kg on Days 1, 15, and 30, recovery Days 41 to 43
[18] = group mean, NSG mice, 50 Di L3 Merial worms, high dose 5 mg/kg on Days 1, 15, and 30, recovery Days 41 to 43
[19] = group mean, NSG mice, 50 Di L3 UC strain, High Dose 5 mg/kg on Days 1, 15, and 30, recovery Days 41 and 42
[20] = individual mouse, NSG mice, 50 Di L3 Merial worms, 1 mg/kg on Days 1, 15, and 30, recovery Days 41 to 43, 1 mg/kg
[21] = individual mouse, NSG mice, 50 Di L3 Merial worms, high dose 5 mg/kg on Days 1, 15, and 30, recovery Days 41 to 43, 5 mg/kg
[22] = individual mouse, NSG mice, 50 Di L3 UC strain, High Dose 5 mg/kg on Days 1, 15, and 30, recovery Days 41 and 42, 5 mg/kg
[23] = EMO Control: 2.5 mg/kg EMO days 1, 15, 30, without MPA
[24] = EMO/MPA: 2.5 mg/kg EMO days 1, 15, 30, with MPA (hyperinfection)
[25] = IVM Control: 3 mg/kg IVM days 1, 15, 30, without MPA
[26] = IVM/MPA: 3 mg/kg IVM days 1, 15, 30, with MPA (hyperinfection)

## CC(C)C[C@H]1C(=O)O[C@H](Cc2ccc(N3CCOCC3)cc2)C(=O)N(C)[C@@H](CC(C)C)C(=O)O[C@H](C)C(=O)N(C)[C@@H](CC(C)C)C(=O)O[C@H](Cc2ccc(N3CCOCC3)cc2)C(=O)N(C)[C@@H](CC(C)C)C(=O)O[C@H](C)C(=O)N1C [EMO, emodepside]
Dirofilaria immitis; NSG mice dosed orally with 1 mg/kg at Days 1, 15, and 30 post-infection, day 42/6 weeks
  HW parasite load (normalized percent larva recovery, FIG. 2): significantly reduced HW parasite load
Dirofilaria immitis; [3]
  % Red: 0%
  % Rec: 36% and 28% (2×) and 46% (2×) and 42% and 44%
  Survival: 18 and 14 (2×) and 23 (2×) and 21 and 22
Dirofilaria immitis; [4]
  % Red: 15%
  % Rec: 28% and 26% (3×) and 30% and 42% and 22%
  Survival: 14 and 13 (3×) and 15 and 21 and 11
Dirofilaria immitis; [5]
  % Red: 50%
  % Rec: 28% (2×) and 14% and 22% and 4% and 6% and 20%
  Survival: 14 (2×) and 7 and 11 and 2 and 3 and 10
Dirofilaria immitis; [6]
  % Red: 86%
  % Rec (percent of the original 50 Di recovered): 2% (3×) and 0% (3×) and 6% (2×)
  Survival (number of Di recovered from the mouse): 1 (3×) and 0 (3×) and 3 (2×)
Dirofilaria immitis; [7]
  % Red (percent reduction in percent of Di recovered compared to control): 30%
  % Rec (percent of the original 50 Di recovered): 24% and 30% (2×) and 32% and 28% and 26%
  Survival (number of Di recovered from the mouse): 12 and 15 (2×) and 16 and 14 and 13
Dirofilaria immitis; [8]
  % Red: 33%
  % Rec: 26% and 24% (2×) and 16% (2×) and 20% and 22%
  Survival: 13 and 12 (2×) and 8 (2×) and 10 and 11
Dirofilaria immitis; [9]
  Mean % Rec: 22%
  Mean Survival: 11
Dirofilaria immitis; [10]
  % Red: 0%
  % Rec: 22% (2×) and 28% and 36% and 34% and 14%
  Survival: 11 (2×) and 14 and 18 and 17 and 7
Dirofilaria immitis; [11]
  Mean % Rec: 26%
  Mean Survival: 13
Dirofilaria immitis; [12]
  Mean % Rec: 39%
  Mean Survival: 19
Dirofilaria immitis; group mean, NSG mice, 50 Di L3, 2x (1 mg/kg) at Days 1 and 30, recovery Days 41 to 43
  Mean % Rec: 29%
Dirofilaria immitis; group mean, NSG mice, 50 Di L3, 3x (1 mg/kg) at Days 1, 15, and 30, recovery Days 41 to 43
  Mean % Rec: 17%
Dirofilaria immitis; [13]
  Mean % Rec: 2%
  Mean Survival: 1
Dirofilaria immitis; [14]
  Mean % Rec: 28%
  Mean Survival: 14
Dirofilaria immitis; in vivo
  Mean Survival: 14 and 9
[1]; [15]
  % Rec, Mean: 24%
  Survival, Mean: 12
[1]; [16]
  % Rec: 18% (2×) and 26% and 30% (2×) and 12% and 36%
  Survival: 9 (2×) and 13 and 15 (2×) and 6 and 18
[1]; NSG mice, 50 Di L3 Merial worms, 1 mg/kg on Days 1, 15, and 30, recovery Days 41 to 43
  % Red: 35%
[1]; NSG mice, 50 Di L3 Merial worms, high dose 5 mg/kg on Days 1, 15, and 30, recovery Days 41 to 43
  % Red: 0%
[1]; NSG mice, 50 Di L3 UC strain, High Dose 5 mg/kg on Days 1, 15, and 30, recovery Days 41 and 42
  % Red: 47%
[1]; [17]
  Mean % Rec: 22%
  Mean Survival: 11
[1]; [18]
  Mean % Rec: 51%
  Mean Survival: 25
[1]; [19]
  Mean % Rec: 19%
  Mean Survival: 10
[1]; in vivo
  % Red: 37%
[1]; [20]
  % Rec: 14% and 26% and 24% (2×) and 16% and 20% and 32% and 22%
  Survival: 7 and 13 and 12 (2×) and 8 and 10 and 16 and 11
[1]; [21]
  % Rec: 52% and 68% and 48% (4×) and 56% and 36%
  Survival: 26 and 34 and 24 (4×) and 28 and 18
[1]; [22]
  % Rec: 20% (3×) and 22% (2×) and 18% and 14%
  Survival: 10 (3×) and 11 (2×) and 9 and 7
[2]; [23]
  Adult S. stercoralis recovery counts (individual mice): 0 (4×) and 1
  Adult S. stercoralis recovery counts, mean: 0.2
  L1 S. stercoralis recovery counts (individual mice): 0
  L1 S. stercoralis recovery counts, mean: 0
  L3 S. stercoralis recovery counts (individual mice): 5 (2×) and 8 and 0 and 1
  L3 S. stercoralis recovery counts, mean: 4
[2]; [24]
  Adult S. stercoralis recovery counts (individual mice): 0
  Adult S. stercoralis recovery counts, mean: 0
  L1 S. stercoralis recovery counts (individual mice): 0
  L1 S. stercoralis recovery counts, mean: 0
  L3 S. stercoralis recovery counts (individual mice): 4 and 123 and 228 and 102 and 130 and 39 and 18
  L3 S. stercoralis recovery counts, mean: 92
[2]; 2.5 mg/kg on days 1, 15, and 30
  Circulating L3: reduced the circulating L3

## CC[C@H](C)[C@H]1O[C@]2(CC[C@@H]1C)C[C@@H]1C[C@@H](C/C=C(\C)[C@@H](O[C@H]3C[C@H](OC)[C@@H](O[C@H]4C[C@H](OC)[C@@H](O)[C@H](C)O4)[C@H](C)O3)[C@@H](C)/C=C/C=C3\CO[C@@H]4[C@H](O)C(C)=C[C@@H](C(=O)O1)[C@]34O)O2 [IVM, ivermectin]
Dirofilaria immitis; in vivo
  % Rec, Mean: 1% and 4% and 2%
  Mean % Rec: 6%
  Mean Survival: 3
Dirofilaria immitis; in vivo, po, 3 mg/kg
  HW parasite load (normalized percent larva recovery, FIG. 2): significantly reduced HW parasite load
[1]; in vivo, 3 mg/kg
  % Red: 47%
  Mean % Rec: 18%
  Mean Survival: 9
[2]; [25]
  Adult S. stercoralis recovery counts (individual mice): 0
  Adult S. stercoralis recovery counts, mean: 0
  L1 S. stercoralis recovery counts (individual mice): 0
  L1 S. stercoralis recovery counts, mean: 0
  L3 S. stercoralis recovery counts (individual mice): 6 and 9 and 26 and 210 and 2
  L3 S. stercoralis recovery counts, mean: 51
[2]; [26]
  Adult S. stercoralis recovery counts (individual mice): 0
  Adult S. stercoralis recovery counts, mean: 0
  L1 S. stercoralis recovery counts (individual mice): 0
  L1 S. stercoralis recovery counts, mean: 0
  L3 S. stercoralis recovery counts (individual mice): 19 and 24 and 4 and 13 and 25 and 16 and 40 and 38
  L3 S. stercoralis recovery counts, mean: 22
[2]; 3 mg/kg on days 1, 15, and 30
  Circulating L3: reduced the circulating L3

## CC(=O)OCC(=O)[C@@]1(O)CC[C@H]2[C@@H]3C[C@H](C)C4=CC(=O)C=C[C@]4(C)[C@H]3[C@@H](O)C[C@@]21C [MPA, methylprednisolone acetate]
Haemonchus contortus; MPA-treated NSG mice, 500 Hc L3 oral gavage, 14 Days PI
  Hc Recovery, Average: 10.5
Haemonchus contortus; MPA-treated NSG mice, 500 Hc L3 oral gavage, 21 Days PI
  Hc Recovery, Average: 2
Haemonchus contortus; MPA-treated NSG mice, 500 Hc L3 oral gavage, 28 Days PI
  Hc Recovery, Average: 0
Haemonchus contortus; MPA-treated NSG mice, 500 Hc L3 oral gavage, 56 Days PI
  Hc Recovery, Average: 0
Haemonchus contortus; MPA-treated NSG mice, 500 Hc L3 oral gavage, 7 days PI
  Hc Recovery, Average: 19.5
Haemonchus contortus; MPA-treated NSG mice, 1000 Hc L3 oral gavage, 14 Days PI
  Hc Recovery (individual mice): 15 and 1
Haemonchus contortus; MPA-treated NSG mice, 1000 Hc L3 oral gavage, 21 Days PI
  Hc Recovery (individual mice): 15 and 20
Haemonchus contortus; MPA-treated NSG mice, 1000 Hc L3 oral gavage, 28 Days PI
  Hc Recovery (individual mice): 0 and 1
Haemonchus contortus; MPA-treated NSG mice, 1000 Hc L3 oral gavage, 56 Days PI
  Hc Recovery (individual mice): 0
Haemonchus contortus; MPA-treated NSG mice, 1000 Hc L3 oral gavage, 7 days PI
  Hc Recovery, Average: 36
Haemonchus contortus; in vivo
  # Eggs Found: 2
Haemonchus contortus; in vivo, po
  Hc Recovery (individual mice): 19 and 2 and 0 and 36 and 3 and 24 and 48
[2]; MPA only (hyperinfection)
  Adult S. stercoralis recovery counts (individual mice): 888 and 235 and 34 and 437 and 581 and 447
  Adult S. stercoralis recovery counts, mean: 437
  L1 S. stercoralis recovery counts (individual mice): 86 and 24 and 8456 and 9181 and 3464 and 670
  L1 S. stercoralis recovery counts, mean: 3647
  L3 S. stercoralis recovery counts (individual mice): 275 and 31 and 2760 and 1766 and 632 and 1015
  L3 S. stercoralis recovery counts, mean: 1080
